Results as given in US20210343422A1, “METHODS FOR DYNAMIC MODELING AND CLOSED-LOOP CONTROL OF INFLAMMATION” (Georgia Tech Research Corporation, priority 2018, published 2021).
Entries after “also recorded” stand apart in the source; their conditions may differ.

Legend:
[1] = system: RAW 264.7 murine immortalized macrophages; test: iNOS expression by immunocytochemistry (ICC), normalized to nuclei count; format: cell-based; conditions: for sensitivity of iNOS response, IFN-γ versus TNF-α as second pro-inflammatory stimulus: FIG. 9
Procedure: (§1) All studies in this work were performed using RAW 264.7 murine immortalized macrophages (ATCC TIB-71™). Macrophages were expanded, maintained, and cultured in basal macrophage medium, which is comprised of DMEM (Thermo Fisher Scientific; Ser. No. 12/430,062), 10% FBS (Thermo Fisher Scientific; 26140079), and 1% antibiotic/antimycotic (Sigma-Aldrich; A5955).
(§2) Raw 264.7 macrophages were cultured to 70% confluence before conditioning began. Cells were conditioned by addition of medium with lipopolysaccharide (LPS; Sigma-Aldrich; L2880), interferon gamma (IFN-γ; R&D Systems; 485-MI), or interleukin (IL)-4 (PeproTech; 214-14) as indicated.
(§3) Raw 264.7 macrophages were conditioned with LPS or IFN-γ alone to quantify individual stimulus dynamic response, with LPS or IFN-γ sequentially to recover iNOS expression via orthogonal input, or with LPS […] to quantify supra-additivity and model predictive control strategy response. Pre-treatment, 24 hours of IL-4 prior to addition of LPS or IFN-γ, was used to induce an anti-inflammatory, non-nave state for experiments involving hysteretic effects.
For immunocytochemistry (ICC) experiments, macrophages were cultured in 96-well microplates. Macrophages were fixed in 4% PFA solution for 15 minutes and blocked with 5% BSA+3% goat serum in PBS for one hour. Cells were stained with α-iNOS antibody (Cell Signaling Technology; Cat. No. 13120; 1:400) and DAPI for normalization to nuclei count. Cells were imaged at 10× magnification (Zeiss Observer Z1). Image fluorescence was thresholded and total fluorescence above the threshold was normalized to nuclei number.
(§4) ICC and Western blot data were aggregated and iNOS expression for each independent experiment was normalized to the positive control with Raw264.7 cells treated with 1 μg/mL LPS for 24 hours (dynoDataLoad.m). iNOS dynamics plots were generated using the Gramm package for MATlAB. Data at sampled time points (0, 24 48, and 72 hours) were expressed as mean±SEM for separated data (N=38 for LPS single input experiments; N=8 for LPS repeated input experiments; N=8 for LPS cycled input experiments; N=32 for IFN-γ single input experiments; N=16 for IFN-γ repeated input experiments; N=16 for IFN-γ cycled input experiments). To generate interpolation curves data were smoothed using the Savitzky-Golay (sgolay) option in the curve fitting toolbox. Shaded band on curve represents root mean squared (RMS) cross validation error on smoothed data (macrophageDyn_figGenv3.m).

[2] = system: RAW 264.7 murine immortalized macrophages; test: iNOS expression by quantitative Western blot, normalized to α-tubulin; format: cell-based
Procedure: as §1, §2
For Western blot experiments, cells were cultured in 6-well plates then lysed using RIPA buffer with PMSF (Sigma-Aldrich), and cOmplete Mini (Sigma-Aldrich). Membranes were probed for α-tubulin (Sigma-Aldrich, Cat. No. T6074; 1:4000) and iNOS (1:1000). Membranes were imaged on a LiCor Odyssey CLx machine and quantified in ImageStudio Lite. iNOS band intensity was normalized to α-tubulin intensity to yield iNOS expression.
as §4

Raw264.7 cells = test: Arg1 expression for M2 polarization validation; format: cell-based, murine; conditions: IL-4 pre-conditioning, FIG. 11
Procedure: as §3
To model Raw264.7 cells starting in a non-nave state, the inventors pre-conditioned macrophages with IL-4 for 24 hours prior to pro-inflammatory stimulation. […] Reference source not found. For each LPS concentration, iNOS expression for non-M2 polarized LPS-only treated cells were divided by iNOS expression values from cell treated with an array of IL-4 concentrations for 24 hours followed by 24 hours of LPS. The matrix of LPS and IL-4 concentrations was interpolated using 3rd order linear least squares, which provided the inverse of the continuous input concentration-dependent attenuation factor γ. […] The M2 driven attenuation of M1 response reflects the systemic immunosuppression that poses a major risk to post-traumatic or surgical injury patients.

[3] = physiologically relevant concentration range

In the case of TNF-α, the “sensitivity of iNOS response, IFN-γ versus TNF-α as second pro-inflammatory stimulus” value [1, 3] is reported as “more sensitive to IFN-γ”.

For lipopolysaccharide [LPS], the “duration of iNOS level” value ([1]; LQG controller input: 24 hours of 20 ng/ml, then 48 hours at 1 μg/ml LPS) was “sustained this iNOS level through 48 hours, but not through 72 hours”, the “iNOS expression level, of the reference” value ([1]; LQG controller input: 24 hours of 20 ng/ml, then 48 hours at 1 μg/ml LPS, read at 24 hours) was 60% and the “iNOS expression, peak, of normalized max iNOS” value ([1]; PI controller input: 40 ng/ml LPS for 24 hours, then 1 μg/ml until 72 hours, read at 24 hours, max = 24 hour level given 1 μg/ml LPS) was “approximately 70%”. The “iNOS expression, of max” value ([1]; PI controller input: 40 ng/ml LPS for 24 hours, then 1 μg/ml, read at 48 hours) was 50 % max, the “iNOS response above the high LPS concentration” value ([1]; above 1 μg/ml LPS) was “response tapered off” and the “iNOS expression at 72 hours” value ([1]; combined PI and LQG three-step LPS input strategy) was “did not keep activation high at 72 hours”. The “iNOS expression dynamics on repeated or cycled LPS stimulation” value ([1]; multiple administrations of LPS, or 24 hours in control media before LPS re-stimulation) was “did not alter iNOS expression dynamics; also recorded: not modulated”, the “LPS dose-to-iNOS response relationship” value ([1]; physiologically relevant concentration range, up to 1 μg/ml LPS) was “monotonic” and the “time of peak in iNOS expression” value ([2]; single administration of 1 μg/ml LPS) was 24 h. The “decay of iNOS expression to baseline after the peak” value ([2]; single administration of 1 μg/ml LPS, LPS not removed) was 48 h.

B1: interferon gamma (protein, UniProt P01580 23-155, looked up)
Interferon gamma: HGTVIESLESLNNYFNSSGIDVEEKSLFLDIWRNWQKDGDMKILQSQIISFYLRLFEVLKDNQAISNNISVIESHLITTFFSNSKAKKDAFMSIAKFEVNNPQVQRQAFNELIRVVHQLLPESSLRKRKRSRC
notes: interferon gamma (R&D Systems; 485-MI), second orthogonal pro-inflammatory input
In the case of B1, the “temporal iNOS response to IFN-γ alone” value ([1]; 100 ng/ml IFN-γ alone, FIG. 10) is reported as “not sustained”, the “iNOS levels after prior LPS input” value ([1]; 24 hrs of LPS, then IFN-γ delayed or immediately after, FIGS. 4B-4C) is reported as “robustly increased iNOS levels” and the “effect on LPS-induced iNOS expression (supra-additivity)” value ([1]; IFN-γ with LPS, concomitantly or in series, through 72 hours) is reported as “amplifies LPS-induced iNOS expression”. For the same molecule, the “iNOS expression in IL-4 pre-treated cells, IFN-γ with LPS versus LPS alone” value ([1]; lower LPS and higher IL-4 concentrations, FIG. 5B-5C) was “greater iNOS expression was observed” and the “sensitivity of iNOS response, IFN-γ versus TNF-α as second pro-inflammatory stimulus” value [1, 3] was “more sensitive to IFN-γ”.

B2: interleukin (IL)-4 (protein, UniProt P07750 21-140, looked up)
Interleukin-4: HIHGCDKNHLREIIGILNEVTGEGTPCTEMDVPNVLTATKNTTESELVCRASKVLRIFYLKHGKTPCLKKNSSVLMELQRLFRAFRCLDSSISCTMNESKSTSLKDFLESLKSIMQMDYS
notes: interleukin-4 (PeproTech; 214-14), used to induce an anti-inflammatory, non-naive state
In the case of B2, the “iNOS expression after IL-4 pre-conditioning” value ([1]; IL-4 for 24 hours, then 24 hr of LPS) is reported as “attenuated expression of iNOS”, the Arg1 expression (Raw264.7 cells) is reported as “increased expression of Arg1” and the iNOS protein expression ([2]; IL-4 treatment, FIG. 8, n=2) is reported as “not expressed”.
